The source of these data is article PMC4697443 (Bioorganic & medicinal chemistry, 2015).

Marks after values point to notes of the source that are not given here.

This data set deals with BV2 microglial cells.

Turning to “3-Chloro-N-(1-methyl-1H-benzo[d]imidazol-2-yl)benzamide [Compound 7]”, the Viability is given as 1000^d μM.
